Data taken from US8192962B2, “Processes for detecting toxic substances” (Daikin Industries, Ltd., priority 2001, dated 2012).

System: DNA repair protein genes
Assay: DNA chip mRNA expression in yeast, DNA repair protein genes (Table 3)
Type: cell-based, Saccharomyces cerevisiae S288C
Conditions: incubated two hours, concentrations as in the 1st table
Method in brief: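 S. cerevisiae S288C grown at 25° C in YPD were exposed in log phase for two hours to one toxic chemical at a growth-inhibiting, non-lethal concentration; untreated cells served as control. Poly(A) mRNA was reverse-transcribed with Cy3/Cy5-dUTP and hybridized to a whole-genome yeast DNA chip at 65° C for over 12 hours; values are fluorescence ratios versus untreated.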

## [Cl][Cd][Cl] [(2), CdCl2]
Yeast gene YAL015C
  The level of expressed mRNA in the presence of chemical substance/The level of expressed mRNA in the absence of chemical substance: 1.1
Yeast gene YAR007C
  The level of expressed mRNA in the presence of chemical substance/The level of expressed mRNA in the absence of chemical substance: 1.9
Yeast gene YBL019W
  The level of expressed mRNA in the presence of chemical substance/The level of expressed mRNA in the absence of chemical substance: 9.1
Yeast gene YBR073W
  The level of expressed mRNA in the presence of chemical substance/The level of expressed mRNA in the absence of chemical substance: 1.0
Yeast gene YBR272C
  The level of expressed mRNA in the presence of chemical substance/The level of expressed mRNA in the absence of chemical substance: 1.8
Yeast gene YCR014C
  The level of expressed mRNA in the presence of chemical substance/The level of expressed mRNA in the absence of chemical substance: 1.0
Yeast gene YDL017W
  The level of expressed mRNA in the presence of chemical substance/The level of expressed mRNA in the absence of chemical substance: 2.3
Yeast gene YDL059C
  The level of expressed mRNA in the presence of chemical substance/The level of expressed mRNA in the absence of chemical substance: 5.1
Yeast gene YDL200C
  The level of expressed mRNA in the presence of chemical substance/The level of expressed mRNA in the absence of chemical substance: 2.0
Yeast gene YDR054C
  The level of expressed mRNA in the presence of chemical substance/The level of expressed mRNA in the absence of chemical substance: 1.0
Yeast gene YDR369C
  The level of expressed mRNA in the presence of chemical substance/The level of expressed mRNA in the absence of chemical substance: 1.1
Yeast gene YEL019C
  The level of expressed mRNA in the presence of chemical substance/The level of expressed mRNA in the absence of chemical substance: 1.6
Yeast gene YEL037C
  The level of expressed mRNA in the presence of chemical substance/The level of expressed mRNA in the absence of chemical substance: 2.0
Yeast gene YER162C
  The level of expressed mRNA in the presence of chemical substance/The level of expressed mRNA in the absence of chemical substance: 1.2
Yeast gene YFL014W
  The level of expressed mRNA in the presence of chemical substance/The level of expressed mRNA in the absence of chemical substance: 5.1
Yeast gene YGL058W
  The level of expressed mRNA in the presence of chemical substance/The level of expressed mRNA in the absence of chemical substance: 1.1
Yeast gene YGL091C
  The level of expressed mRNA in the presence of chemical substance/The level of expressed mRNA in the absence of chemical substance: 1.8
Yeast gene YGL127C
  The level of expressed mRNA in the presence of chemical substance/The level of expressed mRNA in the absence of chemical substance: 1.9
Yeast gene YGL163C
  The level of expressed mRNA in the presence of chemical substance/The level of expressed mRNA in the absence of chemical substance: 0.8
Yeast gene YGL249W
  The level of expressed mRNA in the presence of chemical substance/The level of expressed mRNA in the absence of chemical substance: 0.8
Yeast gene YGR180C
  The level of expressed mRNA in the presence of chemical substance/The level of expressed mRNA in the absence of chemical substance: 1.1
Yeast gene YGR231C
  The level of expressed mRNA in the presence of chemical substance/The level of expressed mRNA in the absence of chemical substance: 1.2
Yeast gene YGR258C
  The level of expressed mRNA in the presence of chemical substance/The level of expressed mRNA in the absence of chemical substance: 0.9
Yeast gene YHR164C
  The level of expressed mRNA in the presence of chemical substance/The level of expressed mRNA in the absence of chemical substance: 1.3
Yeast gene YIL036W
  The level of expressed mRNA in the presence of chemical substance/The level of expressed mRNA in the absence of chemical substance: 1.3
Yeast gene YIL072W
  The level of expressed mRNA in the presence of chemical substance/The level of expressed mRNA in the absence of chemical substance: 3.1
Yeast gene YIL143C
  The level of expressed mRNA in the presence of chemical substance/The level of expressed mRNA in the absence of chemical substance: 0.8
Yeast gene YIL153W
  The level of expressed mRNA in the presence of chemical substance/The level of expressed mRNA in the absence of chemical substance: 1.4
Yeast gene YIR002C
  The level of expressed mRNA in the presence of chemical substance/The level of expressed mRNA in the absence of chemical substance: 1.1
Yeast gene YJL026W
  The level of expressed mRNA in the presence of chemical substance/The level of expressed mRNA in the absence of chemical substance: 2.4
Yeast gene YJR046W
  The level of expressed mRNA in the presence of chemical substance/The level of expressed mRNA in the absence of chemical substance: 1.2
Yeast gene YJR052W
  The level of expressed mRNA in the presence of chemical substance/The level of expressed mRNA in the absence of chemical substance: 1.0
Yeast gene YKL145W
  The level of expressed mRNA in the presence of chemical substance/The level of expressed mRNA in the absence of chemical substance: 1.4
Yeast gene YLR103C
  The level of expressed mRNA in the presence of chemical substance/The level of expressed mRNA in the absence of chemical substance: 1.5
Yeast gene YLR233C
  The level of expressed mRNA in the presence of chemical substance/The level of expressed mRNA in the absence of chemical substance: 0.9
Yeast gene YLR288C
  The level of expressed mRNA in the presence of chemical substance/The level of expressed mRNA in the absence of chemical substance: 0.8
Yeast gene YML032C
  The level of expressed mRNA in the presence of chemical substance/The level of expressed mRNA in the absence of chemical substance: 0.9
Yeast gene YML058W
  The level of expressed mRNA in the presence of chemical substance/The level of expressed mRNA in the absence of chemical substance: 1.2
Yeast gene YMR035W
  The level of expressed mRNA in the presence of chemical substance/The level of expressed mRNA in the absence of chemical substance: 1.7
Yeast gene YMR072W
  The level of expressed mRNA in the presence of chemical substance/The level of expressed mRNA in the absence of chemical substance: 1.0
Yeast gene YMR096W
  The level of expressed mRNA in the presence of chemical substance/The level of expressed mRNA in the absence of chemical substance: 1.7
Yeast gene YMR284W
  The level of expressed mRNA in the presence of chemical substance/The level of expressed mRNA in the absence of chemical substance: 1.0
Yeast gene YNL213C
  The level of expressed mRNA in the presence of chemical substance/The level of expressed mRNA in the absence of chemical substance: 11.6
Yeast gene YNL250W
  The level of expressed mRNA in the presence of chemical substance/The level of expressed mRNA in the absence of chemical substance: 2.2
Yeast gene YNL261W
  The level of expressed mRNA in the presence of chemical substance/The level of expressed mRNA in the absence of chemical substance: 1.3
Yeast gene YNL312W
  The level of expressed mRNA in the presence of chemical substance/The level of expressed mRNA in the absence of chemical substance: 1.0
Yeast gene YOL043C
  The level of expressed mRNA in the presence of chemical substance/The level of expressed mRNA in the absence of chemical substance: 0.9
Yeast gene YOR005C
  The level of expressed mRNA in the presence of chemical substance/The level of expressed mRNA in the absence of chemical substance: 1.8
Yeast gene YOR386W
  The level of expressed mRNA in the presence of chemical substance/The level of expressed mRNA in the absence of chemical substance: 0.8
Yeast gene YPL022W
  The level of expressed mRNA in the presence of chemical substance/The level of expressed mRNA in the absence of chemical substance: 0.8
Yeast gene YPL164C
  The level of expressed mRNA in the presence of chemical substance/The level of expressed mRNA in the absence of chemical substance: 0.7
Yeast gene YPL194W
  The level of expressed mRNA in the presence of chemical substance/The level of expressed mRNA in the absence of chemical substance: 1.4
Yeast gene YPR025C
  The level of expressed mRNA in the presence of chemical substance/The level of expressed mRNA in the absence of chemical substance: 0.8
